Patent US20250281610A1, “P2RY2 ACTIVITY MODULATORS” (Deutsches Krebsforschungszentrum Stiftung des öffentlichen …, priority 2022, published 2025)

How the values were obtained:
THP-1 cells = assay: Viability of THP-1 cells in co-culture with CD33-specific CAR-T cells (flow cytometry-based cell counting); parameters: species or system human; conditions: 100 uM Diquafosol, 24 hours, co-culture with CD33-specific CAR-T cells (FIG. 9)
Method: FIG. 8. Effects of P2RY2 antagonist on T cells and cancer cells in T cell-cancer cell co-cultures. T cells transduced with CD33-specific CAR (CAR-T) were co-cultured with genetically edited THP-1 cells in the absence or presence of 5 μM AR-C 118925XX (AR-C) for 6-24 hours. Control cells: THP-1 cells transduced with non-targeting sgRNA and Cas9 (gNT); P2RY2 deficient cells: THP-1 cells transduced with P2RY2-targeting sgRNA and Cas9 (gP2RY2-3, gP2RY2-4); B7-H3 (CD276) deficient cells: THP-1 cells transduced with B7-H3-targeting sgRNA and Cas9 (gCD276-1); P2RY2 and B7-H3 double deficient cells: THP-1 cells transduced with P2RY2-targeting sgRNA, B7-H3-targeting sgRNA, and Cas9 (gCD276-1 gP2RY2-3 DKO, gCD276-1 gP2RY2-4 DKO); P2RY2 overexpression cells: THP-1 cells transduced with the open reading frame of P2RY2 (P2RY2-OE); B7-H3 overexpression cells: THP-1 cells transduced with the open reading frame of CD276 (CD276-OE). […]
FIG. 9. […] Control cells THP-1 cells transduced with non-targeting sgRNA and Cas9 (Ctrl.); P2RY2 overexpression cells: THP-1 cells transduced with the open reading frame of P2RY2 (P2RY2-OE). […]
The open reading frames of transcripts of P2RY2(ENST00000393597.7) or CD276(ENST00000318443.10), were ordered as a codon optimized gBlock Gene Fragment (Integrated DNA Technologies or Twist Bioscience) and cloned into a lentiviral vector containing a blasticidin selection cassette. […]
MART1-specific CD8+ T cells and MART1 epitope-expressing cancer cells were mixed at a ratio of 1:16 to 1:4. […] T cell activation was assessed by surface staining with anti-CD137-BV421 (4-1BB, Biolegend), anti-CD69-APC/Fire™ 750 (FN50, Biolegend), anti-CD25-AF700 (BC96, Biolegend) antibodies and intracellular staining with anti-IL-2-PE/Cy7 (MQ1-17H12, Biolegend), anti-IFN-7-BV421 (4S.B3, Biolegend), anti-TNF-α-BV785 (MAb11, Biolegend) antibodies, followed by flow cytometry analysis. […] The viability of cancer cells that grow in suspension including THP-1 cells was assessed by flow cytometry-based absolute cell counting using AccuCount beads (Spherotech). […]

[1] = test system: CEA-specific CAR transduced T cells co-cultured with SW480 cells; assay: T cell activation in co-culture of CEA-specific CAR-T cells with SW480 cells; assay type: cell-based, human; conditions: 40 μM ATP, 200 μM ATPγS, 10 μM Diquafosol, 5 μM Denufosol, 24 hours (FIG. 19)
Method: FIG. 19. Effects of P2RY2 agonist and P2RY2 antagonist on T cell activity in T cell-cancer cell co-cultures. T cells transduced with a CEA-specific CAR (CAR-T) were co-cultured with genetically edited SW480 cells for 24 hours in the absence or presence of 40 μM ATP, 200 μM ATPγS, 10 μM Diquafosol, 5 μM Denufosol and 10 μM AR-C 118925XX (AR-C). Control cells: SW480 cells transduced with non-targeting sgRNA and Cas9 (gNT); P2RY2 deficient cells: SW480 cells transduced with P2RY2-targeting sgRNA and Cas9 (gP2RY2-3, gP2RY2-4); B7-H3 (CD276) deficient cells: SW480 cells transduced with B7-H3-targeting sgRNA and Cas9 (gCD276-1); P2RY2 and B7-H3 double deficient cells: SW480 cells transduced with P2RY2-targeting sgRNA, B7-H3-targeting sgRNA, and Cas9 (gCD276-1 gP2RY2-3 DKO, gCD276-1 gP2RY2-4 DKO); P2RY2 overexpression cells: SW480 cells transduced with the open reading frame of P2RY2 (P2RY2-OE); B7-H3 overexpression cells: SW480 cells transduced with the open reading frame of CD276 (CD276-OE). Transduced cancer cells were selected by antibiotics according to antibiotic resistance genes carried by the lentiviral constructs. Flow cytometry analysis of expression of CD25 and CD69 and production of IFNγ within the CD3+CD8+ or CD3+CD4+ cell population is shown (values indicate the percentages of positive cells).
(§1) MART-1 specific T cells were generated as described (Mezzadra et al., Nature 549, 106-110 (2017); Jorritsma et al., Blood 110 (10): 3564-3572. (2007)). To generate CD33-specific chimeric antigen receptor (CAR) T cells and CEA-specific CAR-T cells, a CD33Hul95-CD28Z CAR (described in WO 2019/178382) cassette and MFE-23 (described in US20050147614A1)-CD28Z CAR were separately cloned into retroviral vectors, and the resulting virus was used to transduce T cells as described (Mezzadra et al., Nature 549, 106-110 (2017); Jorritsma et al., Blood 110 (10): 3564-3572. (2007)).
The open reading frames of transcripts of P2RY2 (ENST00000393597.7) or CD276 (ENST00000318443.10), were ordered as a codon optimized gBlock Gene Fragment (Integrated DNA Technologies or Twist Bioscience) and cloned into a lentiviral vector containing a blasticidin selection cassette. Constructs were verified by Sanger sequencing.
(§2) MART1-specific CD8+ T cells and MART1 epitope-expressing cancer cells were mixed at a ratio of 1:16 to 1:1. CD33 CAR-T cells and CD33 expressing THP-1 cells were mixed at a ratio of 1:16 to 1:4. CEA CAR-T cells and CEA expressing SW480 cells were mixed at a ratio of 1:1. Next, cells were centrifugated at 1,600 g for 3 min and incubated at 37° C. and 5% CO2 for 12-72 hours. T cell activation was assessed by surface staining with anti-CD137-BV421 (4-1BB, Biolegend), anti-CD137-PE/Cy7 (4-1BB, Biolegend), anti-CD69-APC/Fire™ 750 (FN50, Biolegend), anti-CD25-AF700 (BC96, Biolegend), anti-CD25-APC (BC96, Biolegend) antibodies and intracellular staining with anti-IL-2-PE/Cy7 (MQ1-17H12, Biolegend), anti-IFN-7-BV421 (4S.B3, Biolegend), anti-TNF-α-BV785 (MAb11, Biolegend), anti-TNF-α-APC (MAb11, Biolegend) antibodies, followed by flow cytometry analysis. For intracellular staining, brefeldin A (Biolegend) was added to the cell culture medium 4 h before cells were harvested. The viability of cancer cells that grow in suspension including THP-1 cells was assessed by flow cytometry-based absolute cell counting using AccuCount beads (Spherotech). For adherent cancer cells including BxPC3, MIA PaCa-2, MDA-MB-231 and MCF7, the cell viability was quantified using CellTiter-Blue Cell Viability Assay (Promega).

B7-H3 = assay: Flow cytometry analysis of B7-H3 expression after ATP or UTP stimulation; assay type: cell-based, human; conditions: for B7-H3 expression: P2RY2 proficient cells (THP-1, FIG. 3) stimulated with ATP or UTP for 24 hours
Source text: FIG. 2. Flow cytometry analysis of B7-H3 expression in wildtype (WT) and P2RY2-deficient bulk THP-1, U937, KBM7, and K562 cells (P2RY2-3 KO and P2RY2-4 KO) in the absence or presence of ATP. Values indicate MFI relative to untreated WT cells.
FIG. 3. Flow cytometry analysis of B7-H3 expression in THP-1 cells in the absence or presence of ATP. Values indicate MFI relative to untreated cells.
THP-1 cells, U937 cells, K562 cells, and KBM7 cells were transduced with a lentiviral vector encoding Cas9 along with a Blasticidin S resistance cassette ([…] deaminase). One day after the transduction, cells were selected with 50 microgram/milliliter Blasticidin S Hydrochloride for […]. Next, surviving cells were transduced with one of the lentiviral vectors encoding sgRNA targeting the sequences 5′-[…]-3′ (SEQ ID NO:6) and 5′-[…]-3′ (SEQ ID NO:7) on the coding strand of P2RY2 gene, along with a puromycin resistance cassette (puromycin N-acetyltransferase). One day after the transduction, cells were selected with 2 microgram/milliliter Puromycin dihydrochloride for 48-96 hours. Selected cells were expanded, subjected to genomic DNA isolation, and analyzed for deleterious editing of the P2RY2 locus by PCR (using primers 5′-[…]-3′ (SEQ ID NO:8) and 5′-[…]-3′ (SEQ ID NO:9)) and Sanger sequencing of the PCR products using primer 5′-[…]-3′ (SEQ ID NO:8) for the sgRNA(5′-[…]-3′, SEQ ID NO:6)) transduced cell and 5′-[…]-3′ (SEQ ID NO:9) for the sgRNA(5′-[…]-3′, SEQ ID NO:7) transduced cell.
The polyclonal cells transduced with Cas9 and sgRNA targeting P2RY2, and wildtype cells were cultured in the absence or presence of ATP or UTP (ligands of P2RY2, Sigma) for 24 hours, stained with anti-B7-H3 antibody and analyzed by flow cytometry.

BxPC3 cells = assay: Viability of BxPC3 cells in co-culture with MART-1-specific TCR-T cells (CellTiter-Blue); assay type: cell-based, human; conditions: single agent: 5 μM AR-C, 10 μg/ml atezolizumab or 10 μg/ml durvalumab, 6-24 hours (FIG. 11)
Source text: FIG. 11. […] Untreated cells served as the control.
as §1, with “T” for “T cells and CEA-specific CAR-T”, “was” for “and MFE-23 (described in US20050147614A1)-CD28Z CAR were separately”, “into a” for “into”, “vector,” for “vectors,”
as §2, with “to” for “to 1:1. CD33 CAR-T cells and CD33 expressing THP-1 cells were mixed at a ratio of 1:16 to”, “1:4.” for “1:4. CEA CAR-T cells and CEA expressing SW480 cells were mixed at a ratio of 1:1.”, “Biolegend),” for “Biolegend), anti-CD137-PE/Cy7 (4-1BB, Biolegend),”, “anti-CD25-AF700” for “anti-CD25-AF700 (BC96, Biolegend), anti-CD25-APC”, “anti-TNF-α-BV785” for “anti-TNF-α-BV785 (MAb11, Biolegend), anti-TNF-α-APC”, “BxPC3” for “BxPC3, MIA PaCa-2, MDA-MB-231”

Compound	T cell activation [1]	B7-H3 expression (B7-H3)	also measured
O=c1ccn([C@@H]2O[C@H](COP(=O)(O)OP(=O)(O)OP(=O)(O)OP(=O)(O)OC[C@H]3O[C@@H](n4ccc(=O)[nH]c4=O)[C@H](O)[C@@H]3O)[C@@H](O)[C@H]2O)c(=O)[nH]1 [Diquafosol]	repressed		T cell-mediated cytotoxicity in THP-1 cells (THP-1 cells): confers resistance
Nc1ncnc2c1ncn2[C@@H]1O[C@H](COP(=O)(O)OP(=O)(O)OP(O)(O)=S)[C@@H](O)[C@H]1O [Adenosine-5′-(γ-thio)-triphosphate]	repressed		
Nc1ncnc2c1ncn2[C@@H]1O[C@H](COP(=O)(O)OP(=O)(O)OP(=O)(O)O)[C@@H](O)[C@H]1O [ATP]	repressed	increased B7-H3 expression in a dose-dependent manner	ATP-induced B7-H3 surface expression upon P2RY2 disruption (B7-H3; P2RY2-deficient THP-1, U937, KBM7, K562 cells, presence of ATP (FIG. 2)): abrogated
Nc1ccn([C@H]2C[C@H](O)[C@@H](COP(=O)(O)OP(=O)(O)OP(=O)(O)OP(=O)(O)OC[C@H]3O[C@@H](n4ccc(=O)[nH]c4=O)[C@H](O)[C@@H]3O)O2)c(=O)n1 [Denufosol]	repressed		
O=c1ccn([C@@H]2O[C@H](COP(=O)(O)OP(=O)(O)OP(=O)(O)O)[C@@H](O)[C@H]2O)c(=O)[nH]1 [UTP]		increased B7-H3 expression in a dose-dependent manner	
atezolizumab: Blocking antibody of the PD-L1-PD-1 immune checkpoint			viability of BxPC3 cells (BxPC3 cells): reduced
